Experimental findings from patent publication US11970497B2, “Tricyclic AKR1C3 dependent KARS inhibitors” (Novartis AG, priority 2019, dated 2024) are described below.

Structures are written as SMILES.

The test system of one experiment is DMS-53. The experiment in a line: Expanded lung cancer cell line proliferation assay. The class given is cell-based. The note with it: Homo sapiens; DMS-53, 72 h, average of PrestoBlue and Cell Titer Glo; AKR1C3 59.7 TPM; read-out: Absolute Qualified AC50. Summed up:
(§1)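 Cells grown in RPMI-1640/10% FBS were seeded at 1000–2000 cells/well, incubated overnight, then exposed for 72 h at 37 °C to an 8-point, 1:3.16 dilution series topping at 1 μM final. Proliferation was read by multiplexed PrestoBlue fluorescence and CellTiter-Glo luminescence, with values the average of both readouts.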

A further experiment deals with DV-90. Put plainly: Expanded lung cancer cell line proliferation assay. The note with it: Homo sapiens; DV-90, 72 h, average of PrestoBlue and Cell Titer Glo; AKR1C3 48.9 TPM; read-out: Absolute Qualified AC50. The class given is cell-based. A digest of the protocol:
as §1

The test system of the next experiment is EBC-1. Put plainly: Expanded lung cancer cell line proliferation assay. The format is cell-based. The note with it: Homo sapiens; EBC-1, 72 h, average of PrestoBlue and Cell Titer Glo; AKR1C3 92.4 TPM; read-out: Absolute Qualified AC50. A digest of the protocol: as §1
For the next experiment, the system named is LXF-289. Put plainly: Expanded lung cancer cell line proliferation assay. The class given is cell-based. The note with it: Homo sapiens; LXF-289, 72 h, average of PrestoBlue and Cell Titer Glo; AKR1C3 358.4 TPM; read-out: Absolute Qualified AC50. Summed up: as §1
In a further experiment the test system is NCI-H2023. Put plainly: Expanded lung cancer cell line proliferation assay. The format is cell-based. The note with it: NCI-H2023, 72 h, average of PrestoBlue and Cell Titer Glo; AKR1C3 1424.8 TPM; read-out: Absolute Qualified AC50. A digest of the protocol:
as §1

The next experiment has as its system NCI-H2122. The experiment in a line: Expanded lung cancer cell line proliferation assay. The note with it: Homo sapiens; NCI-H2122, 72 h, average of PrestoBlue and Cell Titer Glo; AKR1C3 1507.5 TPM; read-out: Absolute Qualified AC50. The class given is cell-based. A digest of the protocol:
as §1

The test system of the next experiment is NCI-H524. Put plainly: Expanded lung cancer cell line proliferation assay. The note with it: Homo sapiens; NCI-H524, 72 h, average of PrestoBlue and Cell Titer Glo; AKR1C3 0.8 TPM; read-out: Absolute Qualified AC50. The class given is cell-based. Summed up:
as §1

The test system of a further experiment is NCI-H838. The experiment in a line: Expanded lung cancer cell line proliferation assay. The class given is cell-based. The note with it: Homo sapiens; NCI-H838, 72 h, average of PrestoBlue and Cell Titer Glo; AKR1C3 233 TPM; read-out: Absolute Qualified AC50. A digest of the protocol:
as §1

The subject of a further experiment is SW1271. Put plainly: Expanded lung cancer cell line proliferation assay. The class given is cell-based. The note with it: SW1271, 72 h, average of PrestoBlue and Cell Titer Glo; AKR1C3 2.4 TPM; read-out: Absolute Qualified AC50. A digest of the protocol: as §1
Experiment [1] deals with NCI-H1944 human lung cancer xenograft. Put plainly: In vivo efficacy in NCI-H1944 xenograft. Also on record: species or system mice. Here is the method:
Compound 40 Dose Dependent In Vivo Efficacy in High AKR1C3 Expressing Human Lung Cancer Xenograft NCI-H1944
Anti-cancer efficacy of Compound 40 was assessed in the NCI-H1944 human lung cancer xenograft model in mice that expresses high levels of AKR1C3. NCI-H1944 tumors were established in nude female mice by injection of a tumor cells subcutaneously. When tumors reached approximately 200 mm^3, mice were randomized according to tumor volume into treatment groups (n=8 per group) on Day 16.

`CN1c2ccc(F)cc2C(=O)CC12CCN(C(=O)NCc1ccc(F)c(NCCO)c1)CC2` [Example 36, 6′-fluoro-N-(4-fluoro-3-((2-hydroxyethyl)amino)benzyl)-1′-methyl-4′-oxo-3′,4′-dihydro-1′H-spiro[piperidine-4,2′-quinoline]-1-carboxamide]: the AC50 was over 1000 nM in the experiment with DMS-53; 347 nM with DV-90; over 1000 nM in the experiment on EBC-1; 781 nM in the experiment with LXF-289; 347 nM in the experiment on NCI-H2023; 258 nM with NCI-H2122. Besides, the AC50 with NCI-H524, in the experiment with NCI-H838 and with SW1271 was over 1000 nM throughout.
For the compound `O=C1CC2(CCN(C(=O)NCc3ccc(F)cc3)CC2)Nc2ccc(F)cc21` [Example 40], the AC50 was over 1000 nM in the experiment with DMS-53; 159 nM in the experiment with DV-90; over 1000 nM in the experiment on EBC-1; 835 nM in the experiment on LXF-289; 63 nM with NCI-H2023; 56 nM in the experiment with NCI-H2122. Further, the AC50 is over 1000 nM in the experiment with NCI-H524, 641 nM in the experiment with NCI-H838 and over 1000 nM in the experiment on SW1271. The compound also displayed a ΔT/ΔC in [1] (75 mg/kg po, qd, Day 44) of 4.9%. Moreover, the “Tumor response” value is “Tumor stasis” in experiment [1] (75 mg/kg qd po); “efficacy benefit” in experiment [1] (all dose levels); “deep tumor regression” in experiment [1] (dose levels above 75 mg/kg qd, po). Besides, the Regression in [1] (150 mg/kg po, qd, Day 44) was found to be 98.5%; in experiment [1] (300 mg/kg po, qd, Day 44) it was 100%.
